{"source": "patent US20110082410A1", "about": "(priority 2009, published 2011)", "key": {"hair follicle": {"tested_on": "hair follicle", "test": "Pulsed PDT for removal of unwanted hair with the photosensitizer methylene blue: pain during irradiation", "conditions": "for PAIN: 665 nm"}, "[1]": {"tested_on": "superficial basal cell carcinomas", "conditions": "low irradiance of range 10-50 mW/cm^2; cited from earlier work"}, "[2]": {"conditions": "topical, compared to ALA; cited from earlier work"}, "[3]": {"conditions": "local anesthesia: infiltrating, spraying or topical solution for transdermal delivery; cited from earlier work"}}, "data": [{"smiles": "CN(C)c1ccc2nc3ccc(=[N+](C)C)cc-3sc2c1", "note": "[methylene blue]", "values": [{"measurement": "PAIN", "setting": "hair follicle; 5 s CW irradiation, 10 W/cm^2", "result": "very painful"}, {"measurement": "Effectiveness of pulsed PDT for removal of unwanted hair", "setting": "hair follicle; pulsed radiation", "result": "effective without pain"}, {"measurement": "PAIN", "setting": "hair follicle; trial 1: 2 pulses, pulse on 2.5 s, pulse off 0.5 s, 0.33 Hz, 50 J/cm^2, 10 W/cm^2", "result": "Very high to unbearable"}, {"measurement": "PAIN", "setting": "hair follicle; trial 2: 5 pulses, pulse on 1 s, pulse off 0.5 s, 0.67 Hz, 50 J/cm^2, 10 W/cm^2", "result": "High"}, {"measurement": "PAIN", "setting": "hair follicle; trial 3: 10 pulses, pulse on 0.5 s, pulse off 0.5 s, 1.00 Hz, 50 J/cm^2, 10 W/cm^2", "result": "Intermediate to small"}, {"measurement": "PAIN", "setting": "hair follicle; trial 4: 14 pulses, pulse on 0.35 s, pulse off 0.5 s, 1.18 Hz, 50 J/cm^2, 10 W/cm^2", "result": "None"}, {"measurement": "PAIN", "setting": "hair follicle; trial 5: 14 pulses, pulse on 0.35 s, pulse off 0.1 s, 2.22 Hz, 50 J/cm^2, 10 W/cm^2", "result": "None"}]}, {"smiles": "NCC(=O)CCC(=O)O", "note": "[delta-ALA, δ-Aminolevulinic Acid]", "values": [{"measurement": "Pain induced by PDT treatment", "setting": "[1]", "result": "no significant pain was reported"}]}, {"smiles": "COC(=O)CCC(=O)CN", "note": "[methyl-ester-ALA]", "values": [{"measurement": "Pain during illumination", "setting": "[2]", "result": "significantly less pain compared to ALA"}]}, {"smiles": "CCN(CC)CC(=O)Nc1c(C)cccc1C", "note": "[lidocaine]", "values": [{"measurement": "Improvement of PDT-associated discomfort and pain", "setting": "[3]", "result": "not produced any significant improvement"}]}]}
